Molecular target: VHL (Homo sapiens (Human), UniProt P40337)
Experiment: VHL fluorescence polarization (FP) competition assay
Assay type: binding

CC(C)[C@@H](C(=O)N1C[C@H](O)C[C@H]1C(=O)NCc1ccc(-c2cnn[nH]2)cc1)N1Cc2ccccc2C1=O [Example 100, (2S,4R)—N-(4-(1H-1,2,3-triazol-5-yl)benzyl)-4-hydroxy-1-((S)-3-methyl-2-(1-oxoisoindolin-2-yl)butanoyl)pyrrolidine-2-carboxamide]
IC50 (1% in DMSO): 9.77 µM

CC(C)[C@@H](C(=O)N1C[C@H](O)C[C@H]1C(=O)NCc1ccc(-c2ncon2)cc1)N1Cc2ccccc2C1=O [Example 101, (2S,4R)—N-(4-(1,2,4-oxadiazol-3-yl)benzyl)-4-hydroxy-1-((S)-3-methyl-2-(1-oxoisoindolin-2-yl)butanoyl)pyrrolidine-2-carboxamide]
IC50 (1% in DMSO): 4.39 µM

CC(C)[C@@H](C(=O)N1C[C@H](O)C[C@H]1C(=O)NCc1ccc(-c2scnc2C(F)(F)F)cc1)N1Cc2ccccc2C1=O [Example 102, (2S,4R)-4-hydroxy-1-((S)-3-methyl-2-(1-oxoisoindolin-2-yl)butanoyl)-N-(4-(4-(trifluoromethyl)thiazol-5-yl)benzyl)pyrrolidine-2-carboxamide]
IC50 (1% in DMSO): 7.75 µM

Cc1ncn(C)c1-c1ccc(CNC(=O)[C@@H]2C[C@@H](O)CN2C(=O)[C@H](C(C)C)N2Cc3ccccc3C2=O)cc1 [Example 103, (2S,4R)—N-(4-(1,4-dimethyl-1H-imidazol-5-yl)benzyl)-4-hydroxy-1-((S)-3-methyl-2-(1-oxoisoindolin-2-yl)butanoyl)pyrrolidine-2-carboxamide]
IC50 (1% in DMSO): 33.8 µM

CC[C@H](C)[C@H](NCCc1ccccc1)C(=O)N1C[C@H](O)C[C@H]1C(=O)NCc1ccc(-c2scnc2C)cc1 [Example 104, (2S,4R)-4-hydroxy-1-((2S,3S)-3-methyl-2-(phenethylamino)pentanoyl)-N-(4-(4-methylthiazol-5-yl)benzyl)pyrrolidine-2-carboxamide]
IC50 (1% in DMSO): > 10 µM

CC[C@H](C)[C@H](NC(C)c1ccccc1)C(=O)N1C[C@H](O)C[C@H]1C(=O)NCc1ccc(-c2scnc2C)cc1 (stereo partly drawn) [Example 105, (2S,4R)-4-hydroxy-1-((2S,3S)-3-methyl-2-(1-phenylethylamino)pentanoyl)-N-(4-(4-methylthiazol-5-yl)benzyl)pyrrolidine-2-carboxamide]
IC50 (1% in DMSO): 37.7 µM

Cc1c(-c2ccc(CNC(=O)[C@@H]3C[C@@H](O)CN3C(=O)[C@H](C(C)C)N3Cc4ccccc4C3=O)cc2)ncn1C [Example 106, (2S,4R)—N-(4-(1,5-dimethyl-1H-imidazol-4-yl)benzyl)-4-hydroxy-1-((S)-3-methyl-2-(1-oxoisoindolin-2-yl)butanoyl)pyrrolidine-2-carboxamide]
IC50 (1% in DMSO): 14.2 µM

Cc1ncsc1-c1ccc(CNC(=O)[C@@H]2C[C@@H](O)CN2c2cccc(Oc3ccccc3)c2)cc1 [Example 109, (2S,4R)-4-hydroxy-N-(4-(4-methylthiazol-5-yl)benzyl)-1-(3-phenoxyphenyl)pyrrolidine-2-carboxamide]
IC50 (1% in DMSO): 6.67 µM

COC1=CC(=O)N([C@H](C(=O)N2C[C@H](O)C[C@H]2C(=O)NCc2ccc(-c3scnc3C)cc2)C(C)C)C1 [Example 111, (2S,4R)-4-hydroxy-1-((S)-2-(4-methoxy-2-oxo-2,5-dihydro-1H-pyrrol-1-yl)-3-methylbutanoyl)-N-(4-(4-methylthiazol-5-yl)benzyl)pyrrolidine-2-carboxamide]
IC50 (1% in DMSO): 0.859 µM

Cc1ncsc1-c1ccc(CN/C(=N/C#N)[C@@H]2C[C@@H](O)CN2C(=O)[C@H](C(C)C)N2Cc3ccccc3C2=O)cc1 [Example 112, (2S,4R,E)-N′-cyano-4-hydroxy-1-((S)-3-methyl-2-(1-oxoisoindolin-2-yl)butanoyl)-N-(4-(4-methylthiazol-5-yl)benzyl)pyrrolidine-2-carboximidamide]
IC50 (1% in DMSO): > 100 µM

CC(C)[C@@H](C(=O)N1C[C@H](O)C[C@H]1C(=O)NCc1ccc(C2CC2)cc1)N1Cc2ccccc2C1=O [Example 113, (2S,4R)—N-(4-cyclopropylbenzyl)-4-hydroxy-1-((S)-3-methyl-2-(1-oxoisoindolin-2-yl)butanoyl)pyrrolidine-2-carboxamide]
IC50 (1% in DMSO): > 10 µM

CC(C)[C@@H](C(=O)N1C[C@H](O)C[C@H]1C(=O)NCc1ccc(C2CCC2)cc1)N1Cc2ccccc2C1=O [Example 114, (2S,4R)—N-(4-cyclobutylbenzyl)-4-hydroxy-1-((S)-3-methyl-2-(1-oxoisoindolin-2-yl)butanoyl)pyrrolidine-2-carboxamide]
IC50 (1% in DMSO): 47.3 µM

CC(C)[C@@H](C(=O)N1C[C@H](O)C[C@H]1C(=O)NCc1ccc(C2CCCC2)cc1)N1Cc2ccccc2C1=O [Example 115, (2S,4R)—N-(4-cyclopentylbenzyl)-4-hydroxy-1-((S)-3-methyl-2-(1-oxoisoindolin-2-yl)butanoyl)pyrrolidine-2-carboxamide]
IC50 (1% in DMSO): 15.8 µM

CC(C)[C@@H](C(=O)N1C[C@H](O)C[C@H]1C(=O)NCc1ccc(C2=CCCC2)cc1)N1Cc2ccccc2C1=O [Example 116, (2S,4R)—N-(4-cyclopentenylbenzyl)-4-hydroxy-1-((S)-3-methyl-2-(1-oxoisoindolin-2-yl)butanoyl)pyrrolidine-2-carboxamide]
IC50 (1% in DMSO): 3.9 µM

CC(C)[C@@H](C(=O)N1C[C@H](O)C[C@H]1C(=O)NCc1ccc(C2CCCCC2)cc1)N1Cc2ccccc2C1=O [Example 117, (2S,4R)—N-(4-cyclohexylbenzyl)-4-hydroxy-1-((S)-3-methyl-2-(1-oxoisoindolin-2-yl)butanoyl)pyrrolidine-2-carboxamide]
IC50 (1% in DMSO): 15.5 µM

CC(C)[C@@H](C(=O)N1C[C@H](O)C[C@H]1C(=O)NCc1ccc(C2CCOCC2)cc1)N1Cc2ccccc2C1=O [Example 118, (2S,4R)-4-hydroxy-1-((S)-3-methyl-2-(1-oxoisoindolin-2-yl)butanoyl)-N-(4-(tetrahydro-2H-pyran-4-yl)benzyl)pyrrolidine-2-carboxamide]
IC50 (1% in DMSO): 330 µM

Cc1ncsc1-c1ccc(CNC(=O)[C@@H]2C[C@@H](S)CN2C(=O)[C@H](C(C)C)N2Cc3ccccc3C2=O)cc1 [Example 119, (2S,4R)-4-mercapto-1-((S)-3-methyl-2-(1-oxoisoindolin-2-yl)butanoyl)-N-(4-(4-methylthiazol-5-yl)benzyl)pyrrolidine-2-carboxamide]
VHL FP Assay IC50 (1% in DMSO): Not Active

CO/N=C(/NCc1ccc(-c2scnc2C)cc1)[C@@H]1C[C@@H](O)CN1C(=O)[C@H](C(C)C)N1Cc2ccccc2C1=O [Example 120, (2S,4R,E)-4-hydroxy-N′-methoxy-1-((S)-3-methyl-2-(1-oxoisoindolin-2-yl)butanoyl)-N-(4-(4-methylthiazol-5-yl)benzyl)pyrrolidine-2-carboximidamide]
IC50 (1% in DMSO): 15.5 µM

Cc1ncsc1-c1ccc(CNC[C@@H]2C[C@@H](O)CN2C(=O)[C@H](C(C)C)N2Cc3ccccc3C2=O)cc1 [Example 121, 2-((S)-1-((2S,4R)-4-hydroxy-2-((4-(4-methylthiazol-5-yl)benzylamino)methyl)pyrrolidin-1-yl)-3-methyl-1-oxobutan-2-yl)isoindolin-1-one]
IC50 (1% in DMSO): > 100 µM

Cc1ncsc1-c1ccc(CNC(=O)[C@@H]2C[C@@H](O)CN2C(=O)[C@@H](NC(=O)[C@H](C)NC(=O)OC(C)(C)C)C(C)(C)C)cc1 [Example 122, tert-butyl (S)-1-((S)-1-((2S,4R)-4-hydroxy-2-(4-(4-methylthiazol-5-yl)benzylcarbamoyl)pyrrolidin-1-yl)-3,3-dimethyl-1-oxobutan-2-ylamino)-1-oxopropan-2-ylcarbamate]
IC50 (1% in DMSO): 2.18 µM

Cc1ncsc1-c1ccc(CNC(=O)[C@@H]2C[C@@H](O)CN2C(=O)[C@@H](NC(=O)[C@H](C)N)C(C)(C)C)cc1 [Example 123, (2S,4R)-1-((S)-2-((S)-2-aminopropanamido)-3,3-dimethylbutanoyl)-4-hydroxy-N-(4-(4-methylthiazol-5-yl)benzyl)pyrrolidine-2-carboxamide]
IC50 (1% in DMSO): 4.23 µM

Cc1ncsc1-c1ccc(CNC(=O)[C@@H]2C[C@@H](O)CN2C(=O)[C@@H](NC(=O)CNC(=O)OC(C)(C)C)C(C)(C)C)cc1 [Example 124, tert-butyl 2-((S)-1-((2S,4R)-4-hydroxy-2-(4-(4-methylthiazol-5-yl)benzylcarbamoyl)pyrrolidin-1-yl)-3,3-dimethyl-1-oxobutan-2-ylamino)-2-oxoethylcarbamate]
IC50 (1% in DMSO): 1.11 µM

Cc1ncsc1-c1ccc(CNC(=O)[C@@H]2C[C@@H](O)CN2C(=O)[C@@H](NC(=O)CN)C(C)(C)C)cc1 [Example 125, (2S,4R)-1-((S)-2-(2-aminoacetamido)-3,3-dimethylbutanoyl)-4-hydroxy-N-(4-(4-methylthiazol-5-yl)benzyl)pyrrolidine-2-carboxamide]
IC50 (1% in DMSO): 1.64 µM

Cc1ncsc1-c1ccc(CNC(=N)[C@@H]2C[C@@H](O)CN2C(=O)[C@H](C(C)C)N2Cc3ccccc3C2=O)cc1 [Example 126, (2S,4R)-4-hydroxy-1-((S)-3-methyl-2-(1-oxoisoindolin-2-yl)butanoyl)-N-(4-(4-methylthiazol-5-yl)benzyl)pyrrolidine-2-carboximidamide]
IC50 (1% in DMSO): 79.5 µM | IC50 (10% in DMSO): 112 µM

CC(C)[C@@H](C(=O)N1C[C@H](O)C[C@H]1C(=O)NCc1ccc(C2(O)COC2)cc1)N1Cc2ccccc2C1=O [Example 127, (2S,4R)-4-hydroxy-N-(4-(3-hydroxyoxetan-3-yl)benzyl)-1-((S)-3-methyl-2-(1-oxoisoindolin-2-yl)butanoyl)pyrrolidine-2-carboxamide]
IC50 (10% in DMSO): 406 µM

CC(=O)N[C@H](C(=S)N1C[C@H](O)C[C@H]1C(=O)NCc1ccc(-c2scnc2C)cc1)C(C)C [Example 130, (2S,4R)-1-((S)-2-acetamido-3-methylbutanethioyl)-4-hydroxy-N-(4-(4-methylthiazol-5-yl)benzyl)pyrrolidine-2-carboxamide]
IC50 (1% in DMSO): 3.89 µM

Cc1ncsc1-c1ccc(CNC(=O)C2(C)C[C@@H](O)CN2C(=O)[C@H](C(C)C)N2Cc3ccccc3C2=O)cc1 (stereo partly drawn) [Example 131]
VHL FP Assay IC50 (1% in DMSO): Not Active

Cc1ncsc1-c1ccc(CNC(=O)C2(C)C[C@@H](O)CN2C(=O)[C@H](C(C)C)N2Cc3ccccc3C2=O)cc1 (stereo partly drawn) [Example 132]
IC50 (1% in DMSO): 1.69 µM

Cc1ncoc1-c1ccc(CNC(=O)[C@@H]2C[C@@H](O)CN2C(=O)[C@H](C(C)C)N2Cc3ccccc3C2=O)cc1 [Example 133, (2S,4R)-4-hydroxy-1-((S)-3-methyl-2-(1-oxoisoindolin-2-yl)butanoyl)-N-(4-(4-methyloxazol-5-yl)benzyl)pyrrolidine-2-carboxamide]
IC50 (1% in DMSO): 1.64 µM
